# ChEMBL document CHEMBL2203042, “Novel bivalent ligands for D2/D3 dopamine receptors: Significant co-operative gain in D2 affinity and potency” (ACS Med Chem Lett, 2012)
# Target: D(3) dopamine receptor (Rattus norvegicus, UniProt P19020)
# Experiment: Displacement of [3H]spiperone from rat cloned dopamine D3 receptor expressed in HEK-293 cells by competition binding assay
# Format: cell-based, HEK293
# D(3) dopamine receptor, sequence (P19020 whole entry): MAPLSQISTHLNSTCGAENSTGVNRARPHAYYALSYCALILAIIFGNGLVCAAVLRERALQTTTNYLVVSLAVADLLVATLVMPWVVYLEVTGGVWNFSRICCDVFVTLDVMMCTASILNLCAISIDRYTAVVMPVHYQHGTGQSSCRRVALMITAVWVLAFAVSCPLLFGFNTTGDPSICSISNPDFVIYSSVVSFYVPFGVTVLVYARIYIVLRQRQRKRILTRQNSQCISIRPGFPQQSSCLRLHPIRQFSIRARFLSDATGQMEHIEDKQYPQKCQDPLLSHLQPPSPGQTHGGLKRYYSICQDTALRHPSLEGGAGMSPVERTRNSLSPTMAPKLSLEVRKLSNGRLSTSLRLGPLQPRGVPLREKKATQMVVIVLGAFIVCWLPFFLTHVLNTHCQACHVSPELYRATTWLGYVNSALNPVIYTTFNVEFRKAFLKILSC
row,Compound,Ki
1,CCCN(CCCCCCCCCc1ccccc1)[C@H]1CCc2c(O)cccc2C1,0.023 µM
2,CCCN(CCCCN(CCC)[C@H]1CCc2c(O)cccc2C1)[C@H]1CCc2c(O)cccc2C1,0.004 µM
3,CCCN(CCCCCCCCCCCCN(CCC)[C@H]1CCc2c(O)cccc2C1)[C@H]1CCc2c(O)cccc2C1,0.01 µM
4,CCCCCCCCCN(CCC)[C@H]1CCc2c(O)cccc2C1,0.0073 µM
5,CCCN(CCCCCCCCCCCCCCN(CCC)[C@H]1CCc2c(O)cccc2C1)[C@H]1CCc2c(O)cccc2C1,0.031 µM

# Stronger by Ki, values ahead:
row,Ki,Compound
1,0.0036 µM,CCCN(CCCCCN(CCC)[C@H]1CCc2c(O)cccc2C1)[C@H]1CCc2c(O)cccc2C1
2,0.0022 µM,CCCN(CCCCCCN(CCC)[C@H]1CCc2c(O)cccc2C1)[C@H]1CCc2c(O)cccc2C1
3,0.0011 µM,CCCN(CCCCCCCN(CCC)[C@H]1CCc2c(O)cccc2C1)[C@H]1CCc2c(O)cccc2C1
4,0.0011 µM,CCCN(CCN(CCC)[C@H]1CCc2c(O)cccc2C1)[C@H]1CCc2c(O)cccc2C1

# Target: D(2) dopamine receptor (Rattus norvegicus, UniProt P61169)
# Experiment: Displacement of [3H]spiperone from rat cloned dopamine D2L receptor expressed in HEK-293 cells by competition binding assay
# Format: cell-based, HEK293
# D(2) dopamine receptor, sequence (P61169 whole entry): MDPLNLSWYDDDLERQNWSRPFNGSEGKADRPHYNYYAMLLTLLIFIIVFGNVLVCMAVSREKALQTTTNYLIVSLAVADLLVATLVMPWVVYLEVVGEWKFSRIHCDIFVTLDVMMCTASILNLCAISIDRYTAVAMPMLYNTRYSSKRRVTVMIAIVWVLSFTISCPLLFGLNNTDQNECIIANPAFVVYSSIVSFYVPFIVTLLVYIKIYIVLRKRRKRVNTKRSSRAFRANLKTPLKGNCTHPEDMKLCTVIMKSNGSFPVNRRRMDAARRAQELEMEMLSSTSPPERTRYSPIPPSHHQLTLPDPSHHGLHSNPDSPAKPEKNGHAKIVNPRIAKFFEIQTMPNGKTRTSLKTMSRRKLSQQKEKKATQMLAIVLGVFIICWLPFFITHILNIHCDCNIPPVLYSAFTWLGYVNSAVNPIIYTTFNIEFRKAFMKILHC
row,Compound,Ki
1,CCCN(CCCCCCCCCc1ccccc1)[C@H]1CCc2c(O)cccc2C1,0.14 µM
2,CCCN(CCCCN(CCC)[C@H]1CCc2c(O)cccc2C1)[C@H]1CCc2c(O)cccc2C1,0.07 µM
3,CCCN(CCCCCCCCCCCCN(CCC)[C@H]1CCc2c(O)cccc2C1)[C@H]1CCc2c(O)cccc2C1,0.011 µM
4,CCCCCCCCCN(CCC)[C@H]1CCc2c(O)cccc2C1,0.069 µM
5,CCCN(CCCCCCCCCCCCCCN(CCC)[C@H]1CCc2c(O)cccc2C1)[C@H]1CCc2c(O)cccc2C1,0.055 µM

# Continued, values first:
row,Ki,Compound
1,0.075 µM,CCCN(CCCCCN(CCC)[C@H]1CCc2c(O)cccc2C1)[C@H]1CCc2c(O)cccc2C1
2,0.0059 µM,CCCN(CCCCCCN(CCC)[C@H]1CCc2c(O)cccc2C1)[C@H]1CCc2c(O)cccc2C1
3,0.0039 µM,CCCN(CCCCCCCN(CCC)[C@H]1CCc2c(O)cccc2C1)[C@H]1CCc2c(O)cccc2C1
4,0.016 µM,CCCN(CCN(CCC)[C@H]1CCc2c(O)cccc2C1)[C@H]1CCc2c(O)cccc2C1

# Species on record: Rattus norvegicus
# Experiment: Selectivity ratio of Ki for rat cloned dopamine D2L receptor to Ki for rat cloned dopamine D3 receptor
row,Compound,Ratio Ki
1,CCCN(CCCCCCCCCc1ccccc1)[C@H]1CCc2c(O)cccc2C1,6.1
2,CCCN(CCCCN(CCC)[C@H]1CCc2c(O)cccc2C1)[C@H]1CCc2c(O)cccc2C1,17
3,CCCN(CCCCCCCCCCCCN(CCC)[C@H]1CCc2c(O)cccc2C1)[C@H]1CCc2c(O)cccc2C1,1
4,CCCCCCCCCN(CCC)[C@H]1CCc2c(O)cccc2C1,9.4
5,CCCN(CCCCCCCCCCCCCCN(CCC)[C@H]1CCc2c(O)cccc2C1)[C@H]1CCc2c(O)cccc2C1,1.7

# Other lines, results leading:
row,Ratio Ki,Compound
1,21,CCCN(CCCCCN(CCC)[C@H]1CCc2c(O)cccc2C1)[C@H]1CCc2c(O)cccc2C1
2,2.7,CCCN(CCCCCCN(CCC)[C@H]1CCc2c(O)cccc2C1)[C@H]1CCc2c(O)cccc2C1
3,3.6,CCCN(CCCCCCCN(CCC)[C@H]1CCc2c(O)cccc2C1)[C@H]1CCc2c(O)cccc2C1
4,14,CCCN(CCN(CCC)[C@H]1CCc2c(O)cccc2C1)[C@H]1CCc2c(O)cccc2C1
